From article PMC11252000, “MFSD1 with its accessory subunit GLMP functions as a general dipeptide uniporter in lysosomes” (Nature Cell Biology, 2024) come the findings set out here.

The target in data set [1] is T1, MFSD1–GLMP oocytes (MFSD1L11A/L12A-EmGFP + GLMPY400A-mKate2) (Mus musculus, UniProt Q9DC37, L11A/L12A).
T1 construct: heterodimer at plasma membrane of Xenopus laevis oocytes; lysosomal sorting mutants; EmGFP and mKate2 fusions; with Glycosylated lysosomal membrane protein
T1 sequence (Q9DC37 1-464 L11A/L12A): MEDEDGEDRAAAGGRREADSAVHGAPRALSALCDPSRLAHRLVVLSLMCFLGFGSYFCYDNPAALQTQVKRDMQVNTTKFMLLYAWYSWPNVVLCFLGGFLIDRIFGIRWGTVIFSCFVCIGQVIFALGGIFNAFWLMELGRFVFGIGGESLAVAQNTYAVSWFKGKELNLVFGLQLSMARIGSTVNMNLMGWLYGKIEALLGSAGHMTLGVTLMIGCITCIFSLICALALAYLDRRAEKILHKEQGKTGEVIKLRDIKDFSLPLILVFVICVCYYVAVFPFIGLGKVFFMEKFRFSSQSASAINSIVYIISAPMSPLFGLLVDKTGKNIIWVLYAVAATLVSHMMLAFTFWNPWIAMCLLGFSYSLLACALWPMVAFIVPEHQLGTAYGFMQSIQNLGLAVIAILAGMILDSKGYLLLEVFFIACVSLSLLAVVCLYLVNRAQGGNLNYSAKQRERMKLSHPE
T1 sequence (Q9JHJ3 36-404 Y400A partner): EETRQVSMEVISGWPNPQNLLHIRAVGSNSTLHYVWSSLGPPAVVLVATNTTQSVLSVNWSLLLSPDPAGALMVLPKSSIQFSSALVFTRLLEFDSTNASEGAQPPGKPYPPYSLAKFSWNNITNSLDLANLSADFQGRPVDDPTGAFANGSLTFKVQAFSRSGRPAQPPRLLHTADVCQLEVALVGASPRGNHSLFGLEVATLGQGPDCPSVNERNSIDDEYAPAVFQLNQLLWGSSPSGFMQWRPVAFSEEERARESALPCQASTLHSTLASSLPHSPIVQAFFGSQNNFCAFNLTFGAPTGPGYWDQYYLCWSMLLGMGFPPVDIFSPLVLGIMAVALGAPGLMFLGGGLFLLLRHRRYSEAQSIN
As to the kind of experiment: TEVC competition with Lys–Ala current in oocytes. Format: cell-based.

Data set [2] addresses T2, MFSD1 (MFSD1WT, mmMFSD1, MFSD1-strep) (Mus musculus, UniProt Q9DC37, Y56A).
T2 construct: full length; N-terminal Twin-Strep-tag + HRV 3C site; Expi293F; purified in DDM/CHS; liposomes POPE:POPG:CHS for transport
T2 sequence (Q9DC37 1-464 Y56A): T1 sequence (Q9DC37 1-464 L11A/L12A) with A11L, A12L, Y56A
Description: proteoliposome uptake, pyranine fluorescence. Format: biochemical. The conditions noted are these: pH 6.8, 22 °C, valinomycin; 2.5 mM peptide.

Data set [3] addresses T3, GLMP–MFSD1 (GLMP–MFSD1-strep fusion) (Mus musculus, UniProt Q9DC37).
T3 construct: single-chain fusion GLMP-GSAGSAAGSGEF-MFSD1; C-terminal 3C site + Twin-Strep-tag; Expi293F; DDM/CHS; with Glycosylated lysosomal membrane protein
T3 sequence (Q9DC37 1-464): T1 sequence (Q9DC37 1-464 L11A/L12A) with A11L, A12L
T3 sequence (Q9JHJ3 36-404 partner): T1 sequence (Q9JHJ3 36-404 Y400A partner) with A365Y
As to the kind of experiment: cryo-EM, […] Å map with extra density. The note with it: 20 mM His–Ala; central cavity, outward-open; peptide not unambiguously placed; model 8R8Q (called apo) built in this map. The format is binding.

For data set [4], the target named is T4, MFSD1 (MFSD1WT, mmMFSD1, MFSD1-strep) (Mus musculus, UniProt Q9DC37).
T4 construct: full length; N-terminal Twin-Strep-tag + HRV 3C site; Expi293F; purified in DDM/CHS; liposomes POPE:POPG:CHS for transport
T4 sequence (Q9DC37 1-464): T1 sequence (Q9DC37 1-464 L11A/L12A) with A11L, A12L
Description: nanoDSF thermal shift titration. Format: binding. On the technique in general: In DSF a fluorescence change marks the thermal transition of the protein.

In data set [5] the target is T4, MFSD1 (MFSD1WT, mmMFSD1, MFSD1-strep). As to the kind of experiment: nanoDSF thermal shift. The format is binding. The note with it: 5 mM ligand, pH 7.5, DDM/CHS.
For data set [6], the target named is MFSD1-strep (mouse major facilitator superfamily domain containing 1 protein with N-terminal Twin-Strep-tag) (mouse) (UniProt Q9DC37).
Substrate in data set [7]: CC(C)C[C@H](N)C(=O)N[C@@H](C)C(=O)O
As to the kind of experiment: isotope tracer uptake, LC–MS/MS of Leu(d3) in oocytes. Format: cell-based, Mus musculus. The conditions noted are these: pH 5.0, room temperature, labelled compound, hydrochloride salt, Extended Data Fig. 4a legend gives 4.4 mM for the displayed fit.

Substrate in data set [8]: C[C@H](NC(=O)[C@@H](N)CCCCN)C(=O)O
As to the kind of experiment: TEVC current in Xenopus oocytes. The format is cell-based, Mus musculus. The conditions noted are these: pH 5.0, −40 mV, room temperature (20 °C), hydrobromide salt.

Substrate in data set [9]: C[C@H](NC(=O)[C@@H](N)Cc1c[nH]cn1)C(=O)O
As to the kind of experiment: proteoliposome uptake, pyranine fluorescence. Format: biochemical, Mus musculus. The note with it: pH 6.8, 22 °C, valinomycin-driven membrane potential approx. −100 mV.

Substrate in data set [10]: N[C@@H](Cc1c[nH]cn1)C(=O)N[C@@H](CO)C(=O)O
Description: proteoliposome uptake, pyranine fluorescence. The note with it: pH 6.8, 22 °C, valinomycin-driven membrane potential approx. −100 mV. Format: biochemical, Mus musculus.

The target in data set [11] is T5, MFSD1 as it stands in the GLMP–MFSD1 fusion construct (mouse, UniProt Q9DC37 1-464).
T5 construct: mouse MFSD1, UniProt Q9DC37; C-terminal part of the fusion m3; written apart for the pair row of the structure; also called MFSD1out; source: Expi293F, transiently transfected, purified as part of GLMP–MFSD1-strep; not shown: Twin-Strep, C-terminal, kept
T5 sequence: T1 sequence (Q9DC37 1-464 L11A/L12A) with A11L, A12L
Description: cryo-EM structure; purified GLMP–MFSD1 fusion in 20 mM HEPES pH 7.5, 150 mM NaCl, 0.015% DDM, 0.0015% CHS; apo (4.2 Å) and dialysed against 20 mM His–Ala (4.1 Å); outward-open conformation. The conditions noted are these: both partners purified.

Residue numbers refer to the chain shown, from its start. In names and notes the source's numbering stands. Where a SMILES comes first, the peptide text is derived from it.

What is called inhibition is the drop in the measured response relative to a control, in per cent. For `C[C@H](N)C(=O)N[C@@H](C)C(=O)O` [Ala–Ala] (H-Ala-Ala-OH), the inhibition at 20000 µM in [1] (read-out: % inhibition at 20 mM) is 66 ± 3%.

Take `N[C@@H](CCC(=O)O)C(=O)N[C@@H](CO)C(=O)O` [Glu–Ser] (H-Glu-Ser-OH): the inhibition at 10000 µM in data set [1] (read-out: % inhibition at 10 mM) was determined as 26 ± 3%.

As to `N[C@@H](Cc1c[nH]cn1)C(=O)N[C@@H](CO)C(=O)O` [His-Ser] (H-His-Ser-OH), the “uptake rate vs MFSD1WT” value in data set [2] is ~ 50 % reduction.

A word on the Kd: it is the constant that tells how readily two partners part at equilibrium. `C[C@H](NC(=O)[C@@H](N)Cc1c[nH]cn1)C(=O)O` [His–Ala] (H-His-Ala-OH): the “cryo-EM, 4.1 Å map with extra density” value in [3] was “revealed an additional density for GLMP–MFSD1His–Ala”. The equilibrium dissociation constant (Kd) in data set [4] was 6.7 ± 0.55 mM. Also, the “uptake rate vs MFSD1WT” value in data set [2] is reported as ~ 50 % reduction. One may read the ΔTm as the change in melting temperature against a reference sample. In the case of `CC(C)C[C@H](NC(=O)[C@@H](N)CC(C)C)C(=O)O` [Leu–Leu], in data set [5], the shift in melting temperature (ΔTm) came to 14 °C. Turning to His–Ala dipeptide, the KM of His–Ala uptake into MFSD1 proteoliposomes (pyranine assay) in data set [6] turned out to be 119 µM.

B1: MFSD1–GLMP oocytes (MFSD1L11A/L12A-EmGFP + GLMPY400A-mKate2) (Mus musculus; L11A/L12A) (protein)
chain: T1 sequence (Q9DC37 1-464 L11A/L12A)
notes: heterodimer at plasma membrane of Xenopus laevis oocytes; lysosomal sorting mutants; EmGFP and mKate2 fusions; with Glycosylated lysosomal membrane protein
The Km is the substrate concentration at which the rate is half of its maximum. In the case of B1, the Km in data set [7] was found to be 5600 ± 1600 µM; in [8], 2600 ± 400 µM.

B2: MFSD1 (MFSD1WT, mmMFSD1, MFSD1-strep) (Mus musculus) (protein)
chain: T1 sequence (Q9DC37 1-464 L11A/L12A) with A11L, A12L
notes: full length; N-terminal Twin-Strep-tag + HRV 3C site; Expi293F; purified in DDM/CHS; liposomes POPE:POPG:CHS for transport
B2: the Km came to 119.1 ± 59.3 µM in data set [9] and 24.4 ± 13.5 µM in [10].

B3: GLMP as it stands in the GLMP–MFSD1 fusion construct (natural protein, mouse, UniProt Q9JHJ3 36-404, looked up)
chain: T1 sequence (Q9JHJ3 36-404 Y400A partner) with A365Y
modifications: N-glycans on Asn85, Asn94, Asn157, Asn228 and Asn331
notes: mouse GLMP, UniProt Q9JHJ3; N-terminal part of the fusion m3; written apart for the pair row of the structure; source: Expi293F, transiently transfected, purified as part of GLMP–MFSD1-strep
B3: the binding result in data set [11] is reported as “binds”.
